Data on four compounds can be found in patent publication EP1683521A1, “Peptide deformylase inhibitors, their use, and pharmaceutical compositions containing the same” (CENTRE NATIONAL DE LA RECHERCHE SCIENTIFIQUE (CNRS), priority 2005, dated 2006).

SMILES strings stand for the structures. ≈ marks a conversion by molar mass, not a printed value. Where two headings read alike, the source gives them in different places.

Assay [1] concerns the target T1, EcPDF (Escherichia coli, UniProt P0A6K3).
T1 construct: made in house
As to the kind of experiment: NMR titrations on peptide deformylase. The class given is binding. Conditions: probed by NMR titrations.

Assay [2] addresses T2, BsPDF2 (Geobacillus stearothermophilus, UniProt O31410).
T2 construct: made in house
As to the kind of experiment: PDF inhibition assay coupled to formate dehydrogenase (in vitro assay). The format is biochemical, Bacillus stearothermophilus.

Assay [3] deals with T3, AtPDF1A (Arabidopsis thaliana, UniProt Q9FV53).
T3 construct: made in house
Described as above. The format is biochemical. Conditions: mitochondrial PDF, 25 nM in assay; 10 % dimethyl sulfoxide; (TB) = tight binding.

The target of assay [4] is T4, EcPDF1B (Escherichia coli, UniProt P0A6K3).
T4 construct: made in house
Described as above. The class given is biochemical.

Assay [5] concerns B. subtilis-MHY101. Description: B. subtilis MIC. Conditions: Bacillus subtilis.
Assay [6] has as its system Arabidopsis thaliana (ecotype WS4). As to the kind of experiment: Growth inhibition of Arabidopsis thaliana. The format is in vivo.
The subject of assay [7] is B. subtilis-M03482. As to the kind of experiment: B. subtilis MIC. Conditions: Bacillus subtilis.
Assay [8] relates to B. subtilis-MHD101. Description: B. subtilis MIC. Conditions: Bacillus subtilis.
Assay [9] concerns B. subtilis-168. Description: B. subtilis MIC.
Assay [10] has as its system E. coli-CAG1284. As to the kind of experiment: E. coli MIC, tolC mutant strain. Conditions: Escherichia coli.
For assay [11], the system named is E. coli-JM101Tr. Description: E. coli MIC, WT strain. Conditions: Escherichia coli, WT strain JM101Tr.
Setting [12] is: nickel-bound enzyme, 20 nM in assay, 10 % dimethyl sulfoxide, (TB) = tight binding, read-out: IC50.
The mark [13] stands for this setting: nickel-bound enzyme, 40 nM in assay, 10 % dimethyl sulfoxide, (TB) = tight binding, read-out: IC50.
Where [14] appears, read: WT context (strains 168 and MO3482).

T2 sequence (O31410 whole entry): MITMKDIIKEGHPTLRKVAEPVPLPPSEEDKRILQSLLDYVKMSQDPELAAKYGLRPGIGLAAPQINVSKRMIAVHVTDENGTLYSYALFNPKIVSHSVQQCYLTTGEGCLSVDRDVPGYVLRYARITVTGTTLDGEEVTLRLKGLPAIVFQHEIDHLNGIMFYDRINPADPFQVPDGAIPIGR
T4 sequence (P0A6K3 whole entry): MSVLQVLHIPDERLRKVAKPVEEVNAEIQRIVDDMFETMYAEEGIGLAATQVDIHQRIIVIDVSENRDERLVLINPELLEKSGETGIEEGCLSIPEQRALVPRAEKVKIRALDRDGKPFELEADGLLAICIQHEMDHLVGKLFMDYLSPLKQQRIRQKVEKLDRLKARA
T3 sequence (Q9FV53 61-269): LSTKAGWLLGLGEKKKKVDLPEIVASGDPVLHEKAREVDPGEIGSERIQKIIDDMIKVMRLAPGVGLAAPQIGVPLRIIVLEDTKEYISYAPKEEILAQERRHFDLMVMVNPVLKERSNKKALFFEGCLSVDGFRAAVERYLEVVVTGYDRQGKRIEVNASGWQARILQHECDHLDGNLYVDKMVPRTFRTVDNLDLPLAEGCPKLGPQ
T1 sequence (P0A6K3 1-148): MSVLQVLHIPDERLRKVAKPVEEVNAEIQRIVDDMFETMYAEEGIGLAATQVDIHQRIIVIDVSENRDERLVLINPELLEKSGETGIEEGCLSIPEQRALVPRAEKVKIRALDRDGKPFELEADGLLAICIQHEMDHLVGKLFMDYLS

In the case of `Brc1ccc2[nH]ccc2c1` [5-bromoindole], the binding constant result in [1] is recorded as “in the millimolar range”.

With `O=C(Cc1cn(C(=O)OCc2ccccc2)c2ccc(Br)cc12)NO` [Compound 2, 5-bromo-3-hydroxycarbamoylmethyl-indole-1-carboxylic acid benzyl ester], the IC50 is under 27 nM in assay [2] (setting [12]), 14000 nM in assay [3] and 26 nM in assay [4] (setting [13]). Further, the MIC came to 6 µg/mL (≈ 14.9 µM) in [5]; 16 µg/mL (≈ 39.7 µM) in [7]; 12 µg/mL (≈ 29.8 µM) in assay [8]; 20 µg/mL (≈ 49.6 µM) in assay [9] (Bacillus subtilis); 20 µg/mL (≈ 49.6 µM) in [9] (strain 168 (WT context)). Besides, the “concentration at which growth inhibition is observed” value in assay [6] was “higher than 50 µM”.

In the case of `CC(C)(C)OC(=O)NC(CC(=O)NO)Cc1ccccc1` (stereo not shown) [RAS270], the IC50 in [2] is 300 nM; in assay [3], 83000 nM; in assay [4], 44 nM. For the same compound, the MIC in [5] was 8 µg/mL (≈ 27.2 µM); in assay [10] it was 32 µg/mL (≈ 109 µM); in [7] it was over 300 µg/mL; in assay [11], over 300 µg/mL; in [8], over 300 µg/mL; in assay [9] (Bacillus subtilis), over 300 µg/mL. In addition, the MIC result in assay [9] (setting [14]) is listed as “no antibiotic properties”.

For the compound `CC(C)(C)OC(=O)NC(Cc1ccccc1)CN(O)C=O` (stereo not shown) [RAS358], the IC50 was determined as 400 nM in [2] (setting [12]), 150000 nM in assay [3] and 50 nM in assay [4] (setting [13]). Further, the MIC in [5] is 9 µg/mL (≈ 30.6 µM); in [7], over 300 µg/mL; in assay [8] it was over 300 µg/mL; in assay [9] (Bacillus subtilis) it was over 300 µg/mL; in assay [9] (setting [14]) it was “no antibiotic properties”.
